According to article PMC8238948, “Potent inhibitors of toxic alpha-synuclein identified via cellular time-resolved FRET biosensors” (NPJ Parkinson's Disease, 2021):
Entries after “also recorded” stand apart in the source; their conditions may differ. Blank lines part the entries; values can stand above or below the molecule they belong to.

Legend:
[1] = tested on: inter-protomeric and intra-protomeric αSN FRET biosensors in HEK293 cells; experiment: Pilot HTS of the LOPAC library, fluorescence lifetime (FLT) of cellular αSN FRET biosensors; format: cell-based, human; conditions: 10 µM compound, 90 min; hit = FLT change >5 SD
Procedure: Prior to each pilot HTS, FLT and emission spectrum were measured to verify signal level, basal FRET, coefficient of variance (CV), and similarity index. For each HTS, cells were dispensed into compound plates—1536-well (10 µL/well)—and incubated with the compounds (10 µM) or dimethyl sulfoxide (DMSO; 1%) for 90 min. FLT measurements were acquired with the FLT-PR. After deconvolving the instrument response function, a single exponential fit was used to determine the FLT for both the αSN cellular FRET biosensor (τDA) and the donor-only control biosensor (τD). FRET efficiency was determined by Eq. 1. CV was determined from control plates (N = 384 wells).
Fluorescent compounds (FC) were flagged using a spectral similarity index filter, which evaluates the ratio of intensity from two bandwidths that span the donor emission spectrum and are excluded as potential false positives[45],[46],[49],[51],[66]. […] Compounds that changed FLT by >5 standard deviations (SD) were considered hits (Fig. 5, red data points).
On each day of screening, the compound plates were equilibrated to room temperature (RT; 25 °C). The cells were harvested from the 100-mm plates by incubating with TrypLE (Invitrogen) for 2 min, washed three times in PBS by centrifugation at 200 × g, and filtered using 70-μm cell strainers (BD Falcon). Cell viability prior to screen was assessed using a trypan blue assay and confirmed to be >80%. Cells were diluted to 1.5E6 cells/mL. Expression of GFP-αSN and the αSN biosensors were confirmed by fluorescence microscopy prior to each screen (EvosFL-Auto microscope, Thermo Fisher Scientific, USA). During screening, cells (50 μL/well for 384-well; 10 μL/well for 1536-well) were dispensed by a Multidrop Combi liquid dispenser (Thermo, Pittsburg, PA, USA) into the assay plates containing the compounds and allowed to incubate at RT for 90 min before recording with the FLT-PR or SUPR (both instruments manufactured by Fluorescence Innovations Inc., both owned and provided by Photonic Pharma LLC), as described previously[46].
Interfering compounds were flagged as potential false positives by a set of stringent FC filters based on spectral analysis of each well from the LOPAC screen[45],[46]. After removal of FCs, a histogram of the FLT distribution from all compounds in the screen was plotted and fit to a Gaussian curve to obtain the mean (µ) and SD (σ). A hit was defined as a compound that attenuated the FLT efficiency by >5σ relative to the mean µ (Supplementary Fig. 12).

[2] = tested on: αSN oligomerization; parameters: method as in PMID 23604588; conditions: read-out: apparent EC50, inhibition of αSN oligomerization; cited from earlier work
[3] = tested on: SH-SY5Y cells overexpressing unlabeled wild-type (WT) αSN; experiment: CytoTox-Glo cytotoxicity assay: rescue of αSN-induced cytotoxicity; format: cell-based, human
Procedure: Hit compounds were evaluated for rescue of αSN-induced cytotoxicity in using an SH-SY5Y neuroblastoma cell model of alpha-synucleinopathy[18],[69]–[72]. […] A seven-point CRC for RO, BAY, DEM, and Anle138b (positive control compound[41],[73]) was performed to determine IC50 for each compound. […]
Cell cytotoxicity was measured using the CytoTox-Glo (Promega Corporation) Luminescence Assay Kit. SH-SY5Y human neuroblastoma cells were plated at a density of 5 × 10^6 cells/plate in 100 mm plate (Corning) and transfected with unlabeled WT αSN or equivalent vector-only control for 24 h. The transfected cells were then plated at a density of 5000 cells/well in white solid 96-well plate (Corning) with a total volume of 100 μL, followed by treatment with hit compounds spanning a range of concentrations (0.1 nM to 100 μM), as well as DMSO-only controls, for another 48 h. After incubation, 50 μL of CytoTox-Glo Cytotoxicity Assay Reagent was added to all wells followed by mixing by orbital shaking and incubation in the dark for 15 min at RT. Luminescence readings were measured using a Cytation3 Cell Imaging Multi-Mode Reader luminometer (BioTek). After the first read, 50 μL of Lysis Reagent was added, incubated for 15 min at RT, and a second read performed. Total viable cellular luminance was determined by the difference between the first and second luminescence signal and total cellular viability is determined by normalizing to the no-treatment samples.

[4] = target: T1, αSN (15 μM monomeric αSN doped with 5% αSN PFF seeds) (Homo sapiens, UniProt P37840); experiment: Seeded Thioflavin-T aggregation assay; format: biochemical; conditions: 15 μM αSN monomer + 5% PFF; for IC50: 37 °C, max ThT intensity
T1 construct: made in house; host or cells: Escherichia coli BL21(DE3), T7-7 plasmid
Procedure: Figure 11 and Supplementary Fig. 23 present results from a dose-response-seeded aggregation assay. Vehicle, control, and hit compounds were incubated with 15 µM αSN(m), doped with 5% freshly sonicated αSN PFF in PBS under mild agitation (Supplementary Fig. 23a). […] Titration of control and hit compounds were run in triplicate; representative traces of hit compounds are illustrated in Fig. 11a with a full summary of each titration detailed in Supplementary Fig. 23c–h. IC50 was determined for each compound by determining the max ThT intensity for each concentration (Fig. 11b).
Seeded ThT aggregation assay was performed using 15 μM monomeric αSN doped with 5% (0.75 μM sonicated αSN pre-formed fibril (PFF) seeds) in a 384-well plate under slow agitation (300 RPM) at 37 °C. a Control samples for the aggregation include PBS (black), αSN monomer (brown), 5% αSN PFF (red), and the 15 μM monomer+5% PFF mixture (orange). Dose-response curves were made with a titration of compounds. […] In contrast, RO and DEM both show potent effects relative to Baicalin and EGCG controls. BAY does have some response, but it lags behind other hit compounds. b Normalizing the initial peak in ThT data allows us to estimate an IC50 for each hit. […] Although there is a small trend with BAY, the data cannot be fit to resolve an IC50.
ThT (Sigma, product no. T3516) was dissolved in PBS buffer and was filtered through a 0.2-µm syringe filter to make a stock solution of 2.5 mM. Working ThT concentration was 20 µM. PFF seeds were produced via constant agitation of 1000 RPM at 37 °C (ThermoMixer-C, Eppendorf, Hauppauge, NY) of 500 µL of 350 µM αSN in PBS in a 2 mL tube for 5 days. PFFs were aliquoted and flash frozen and stored at −80 °C until further use. PFF seeds were rapidly thawed, diluted to 35 µM in PBS, and sonicated 120 pulses at 50% using a probe-tip sonicator following the established protocols. Master mix samples for each of the different ThT assays were prepared and dispensed in triplicate as 50 µL in 384-well flat, black-bottom polypropylene plates (PN 781209, Greiner Bio-One) and sealed with fluorescently transparent film. Conditions for non-seeded, seeded, and cell homogenate assays varied slightly.
Seeded ThT experiments were performed at a lower monomer concentration to preclude spontaneous αSN aggregation during the time course of the experiment. For both seeded and cell homogenate experiments, sample were prepared in PBS + 20 µM ThT with or without 15 µM αSN(m) +/− 5% PFF (0.75 µM). Additional control samples of 15 µM PFF and 0.75 µM PFF were also prepared. All empty wells were filled with PBS for a thermal sink and to help prevent evaporation. Assay plates were prepared as pre-cellular FRET dose response above. Dose response was done across 8 concentrations (10 nM to 50 µM). The assay was run at 37 °C with mild shaking (200 RPM) in a Cytation3 plate reader. The ThT fluorescence was monitored with excitation filter of 450 nm and emission filter of 490 nm. Readings were acquired every 20 min for a minimum of 24 h. Seeded ThT aggregation IC50 values were determined by first normalizing all ThT curves to the maximal signal at plateau for the αSN + 5% PFF + DMSO samples. The normalized fluorescence at each concentration was fit to the Hill equation to resolve an effective IC50 of seeded aggregation inhibition.

[5] = target: T2, αSN oligomers (Homo sapiens, UniProt P37840); experiment: ThT content (β-sheet) of αSN oligomers after oligomerization assay; format: biochemical; conditions: 70 μM compound (1:5 compound:monomer), 12 h oligomerization; vs DMSO
T2 construct: made in house; host or cells: Escherichia coli BL21(DE3), T7-7 plasmid
Procedure: To explore the presence of β-sheet content in these oligomers, an aliquot was removed prior to cross-linking, diluted into 100 μM ThT working solution, and ThT fluorescence was monitored to detect the presence of β-sheet. Supplementary Fig. 22 presents each sample ThT content normalized to the PFF signal. We observed an increased ThT content in the αSN oligomers (αS-O) that was not affected by DMSO (vehicle) treatment.
A 10-μL aliquot from each sample was taken and diluted with 290 μL ThT working solution (100 μM ThT in PBS) and dispensed into 3 wells of a 384-well, black opaque plate. Additional samples of PBS, αSN(m), and αSN PFF were used as controls. Plates were incubated at ambient temperature for 10 min and then fluorescence read at 450ex/490em on a Spectromax-i3x (Molecular Devices).
Supplemental Figure 22. Characterization of β-sheet content in αSN oligomers due to hit compound
After the 12-hour oligomerization assay aliquots of each sample were
removed and diluted in 100μM ThT and fluorescence read in triplicate (450ex/490em) in 384-well plates. The
ThT signal was normalized to a signal from previously frozen αSN PFF aliquots. After completion of the
PFF, green bar) and the ThT signal was not affected by DMSO (red bar). Oligomerization in the presence of
control compounds, EGCG and Baicalin, at 70μM (a sub-stoichiometric,1:5 compound: monomer ratio)
Our hit compounds RO, DEM, and BAY had differential effects with
both DEM and BAY resulting in increased ThT content and RO not producing a significant change relative to
(1 picture or pasted object on this page, not shown here)

[6] = tested on: differentiated SH-SY5Y cells treated with sonicated human αSN PFF; experiment: Differentiated SH-SY5Y cell model of αSN PFF pathology (pS129 immunoblot); format: cell-based; conditions: 50 μM Baicalin, 200 nM human PFF, 48 h
Procedure: SH-SY5Y cells were differentiated using reduced serum (3%) media supplemented with 10 μM retinoic acid for 3 days and then changed to serum-free media supplemented with 10 ng/mL brain-derived neurotrophic factor for the remainder of the experiment. Stock αSN PFFs were diluted and sonicated as described previously. SH-SY5Y cultures were then treated with 200 nM PFF and PBS, DMSO, 1 μM drug compound (RO, BAY, or DEM), or 50 μM Baicalin. After 48 h, SH-SY5Y were washed with PBS and harvested in cold lysis buffer with protease and phosphatase inhibitors, as previously described. Approximately 15 μg of total protein was loaded onto a 4–20% Criterion TGX midi gel and probed using Syn1 (BD Biosciences, #610787; 1° 1:5000; 2° 1:10K) and pS^129 aSyn (abcam, ab59264; 1° 1:1000; 2° 1:5000) and a-tubulin (abcam, ab4074; 1° 1:1000; 2° 1:10K) page 19: Supplemental Figure 18. […] Differentiated SH-SY5Y cells were treated with PBS, vehicle (DMSO) or compounds with and without 200nM sonicated human αSN PFFs. […] These will be removed in subsequent densitometry analysis. (b) Replicates of PFF +/- compound treatment were ran for immunoblot analysis of pS129 immunoreactivity. (c) Densitometry analysis was performed using ImageLab from BioRad. Total pS129 signal (excluding the non- specific bands) was normalized to tubulin loading control. […] Quantification is normalized per lane to highlight change in the ratio of different species. Note, oligomers quantification is plotted relative to the right-y- axis. All statistical comparisons were to DMSO treatment using two-tailed t-test with * p<0.05; ** p<0.01; *** p<0.005.

[7] = target: T3, WT αSN oligomer (inter-protomeric) FRET biosensor in HEK293 cells (Homo sapiens, UniProt P37840); experiment: FLT dose response, WT oligomer (inter-protomeric) FRET biosensor; format: cell-based; conditions: 1 nM to 50 μM
T3 construct: In addition to full-length αSN fusion constructs, we observe both C-terminally and N-terminally truncated αSN species; expressed in transfected cells; host or cells: HEK293
Procedure: (§1) Hits from the pilot HTS of the LOPAC library were selected and dispensed into 384-well plates to verify reproducible and specific FLT trends using the WT and A53T oligomer (inter-protomeric) FRET biosensors. Figure 6 presents a subset of these dose-response curves for hit compounds RO, BAY, SB206553, and DEM, along with known control compound EGCG. […] Assay quality was determined by Z′ (Eq. 2) where a Z′ > 0.5 indicates good assay quality. Using EGCG as control compound and the hit DEM, we calculated Z′ value of 0.76 and 0.66, respectively, indicating excellent assay quality.
(§2) Fig. 6 FRET dose response of pilot HTS hits. A subset of hits were evaluated using both WT (a) and A53T (b) oligomer biosensor to verify both increased FLT (disrupting αSN–αSN interactions) and decreased FLT (tighter aggregation or remodeled oligomers).
(§3) Compounds were tested in a FLT dose-response assay. The compound was dissolved to 10 mM in DMSO, then serially diluted in 96-well mother plates. Each hit was re-screened for FLT dose response across eight concentrations (1 nM to 50 μM). Compounds (0.5 μL) were transferred from mother plates into assay plates using a Mosquito HV liquid handler (TTP Labtech Ltd, UK). The preparations for αSN FRET biosensors were carried out as above.

[8] = target: T4, A53T αSN oligomer (inter-protomeric) FRET biosensor in HEK293 cells (Homo sapiens, UniProt P37840, A53T); experiment: FLT dose response, A53T oligomer (inter-protomeric) FRET biosensor; format: cell-based; conditions: 1 nM to 50 μM
T4 construct: In addition to full-length αSN fusion constructs, we observe both C-terminally and N-terminally truncated αSN species; expressed in transfected cells; host or cells: HEK293
Procedure: as §1, §2, §3

[9] = target: T5, intra-protomeric αSN biosensor (GFP-αSN-RFP) in HEK293 cells (Homo sapiens, UniProt P37840); experiment: FRET response on intra-protomeric αSN biosensor; format: cell-based; conditions: 10 µM
T5 construct: In addition to full-length αSN fusion constructs, we observe both C-terminally and N-terminally truncated αSN species; expressed in transfected cells; host or cells: HEK293
Procedure: Hits were also evaluated with the intra-protomeric αSN and control, non-specific biosensors. […] The compounds RO, BAY, and DEM as well as the control EGCG each reduced FRET, indicating either reduction in oligomerization or expanded oligomer conformation. Tests of these compounds in two control biosensor systems (GFP/RFP at 1:8 and GFP-linker32-RFP; see Supplementary Fig. 13a, b, respectively) show no significant FRET change.
Fig. 7 FRET response to pilot HTS hits on intra-protomeric αSN biosensor. […] With both donor and acceptor XFP fused to one construct, this biosensor is sensitive to both oligomer formation as well as conformation. […] Experiments were performed with n = 3; *p < 0.05, **p < 0.01, ***p < 0.001, ns indicates no significant difference as determined by Student’s t test.

Molecule: N#C/C(=C\c1ccc(-c2cc(Cl)ccc2Cl)o1)C(=O)Nc1cccc2ncccc12 [AGK2]
- identified as hit in the LOPAC screen [1]: identified

Molecule: Brc1cccc(-c2cc(-c3ccc4c(c3)OCO4)[nH]n2)c1 [Anle138b]
- EC50 [2]: 2.8 µM
- EC50 ([3]; Homo sapiens, SH-SY5Y, 72-h transfection, 48-h exposure to compound, seven-point CRC, read-out: EC50, protection of SH-SY5Y cells from αSN-induced death): 0.9 µM

Molecule: O=C(O)[C@H]1O[C@@H](Oc2cc3oc(-c4ccccc4)cc(=O)c3c(O)c2O)[C@H](O)[C@@H](O)[C@@H]1O [Baicalin]
- IC50 [4]: 0.387 µM
- ThT signal of αSN oligomers [5]: complete loss of ThT signal
- HMW pS129 signal [6]: strong HMW pS^129 signal
- LMW oligomer pS129 fraction [6]: significantly reduced

Molecule: O=C1Nc2cc(Br)ccc2/C1=C1/Nc2ccccc2/C1=N\O [Bio]
- identified as hit in the LOPAC screen [1]: identified

- FLT trend in dose response [7]: reduced donor FLT
- FLT trend in dose response [8]: reduced donor FLT
- IC50 [4]: 1.1 µM
- change in intra-protomeric FRET [9]: reduced FRET
- ThT signal of αSN oligomers [5]: complete loss of ThT signal
Molecule: O=C(O[C@@H]1Cc2c(O)cc(O)cc2O[C@@H]1c1cc(O)c(O)c(O)c1)c1cc(O)c(O)c(O)c1 [EGCG]

Molecule: Cn1c(=O)c(-c2c(Cl)cccc2Cl)cc2cnc(Nc3ccc(N4CCOCC4)cc3)nc21 [PD173952]
- identified as hit in the LOPAC screen [1]: identified

Molecule: SB206553
- FLT trend in dose response [7]: increasing FLT trend; also recorded: mild recovery of FLT
- FLT trend in dose response [8]: increasing FLT trend; also recorded: mild recovery of FLT
- effect on seeded aggregation ([4]; titration up to 50 μM): no aggregation inhibition; also recorded: little to no effect on aggregation
- rescue of αSN-induced cytotoxicity ([3]; dose response, 48-h exposure): no observed effect on cytotoxicity
- rescue of toxicity in three-dose preliminary screen ([3]; three-dose assay): no rescue of toxicity
